Data taken from ChEMBL document CHEMBL5042544, “Discovery of a Potent and Selective ATAD2 Bromodomain Inhibitor with Antiproliferative Activity in Breast Cancer Models” (J Med Chem, 2022).
Active and inactive are the calls of the source. The rule behind the calls is not given here.

How the values were obtained:
[1] = biological target: Histone acetyltransferase p300 (Homo sapiens, UniProt Q09472); assay: Binding affinity to human EP300 bromodomain assessed as dissociation constant by BROMOscan method
[2] = biological target: Bromodomain-containing protein 2 (Homo sapiens, UniProt P25440); assay: Binding affinity to human BRD2 bromodomain 2 assessed as dissociation constant by BROMOscan method
Bromodomain-containing protein 2, sequence (P25440 whole entry): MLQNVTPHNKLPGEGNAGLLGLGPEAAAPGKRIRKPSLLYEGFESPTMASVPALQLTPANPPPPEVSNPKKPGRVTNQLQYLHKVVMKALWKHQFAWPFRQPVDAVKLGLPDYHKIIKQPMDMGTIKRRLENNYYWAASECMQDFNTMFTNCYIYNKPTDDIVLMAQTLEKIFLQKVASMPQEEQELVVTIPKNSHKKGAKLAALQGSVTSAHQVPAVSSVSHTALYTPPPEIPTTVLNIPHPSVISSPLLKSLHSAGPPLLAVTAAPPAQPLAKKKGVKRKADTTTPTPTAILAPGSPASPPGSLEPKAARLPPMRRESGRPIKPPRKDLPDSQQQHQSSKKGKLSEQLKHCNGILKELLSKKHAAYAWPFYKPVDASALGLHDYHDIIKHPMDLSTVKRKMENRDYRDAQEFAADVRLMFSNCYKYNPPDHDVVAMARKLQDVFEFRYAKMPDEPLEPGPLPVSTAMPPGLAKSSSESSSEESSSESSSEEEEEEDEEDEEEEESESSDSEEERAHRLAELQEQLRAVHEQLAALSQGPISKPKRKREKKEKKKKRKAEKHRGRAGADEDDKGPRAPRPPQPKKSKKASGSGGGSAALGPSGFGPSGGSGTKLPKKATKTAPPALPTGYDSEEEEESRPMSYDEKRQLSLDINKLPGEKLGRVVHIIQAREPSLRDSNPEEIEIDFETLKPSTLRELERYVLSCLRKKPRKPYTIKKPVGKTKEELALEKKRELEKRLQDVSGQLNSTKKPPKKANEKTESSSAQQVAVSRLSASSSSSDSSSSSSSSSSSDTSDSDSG

[3] = biological target: Peregrin (Homo sapiens) (UniProt P55201); assay: Binding affinity to human […] bromodomain assessed as residual activity at 300 nM by BROMOscan method relative to control
[4] = biological target: Bromodomain adjacent to zinc finger domain protein 2A (Homo sapiens) (UniProt Q9UIF9); assay: Binding affinity to human BAZ2A bromodomain assessed as residual activity at 300 nM by BROMOscan method relative to control
Bromodomain adjacent to zinc finger domain protein 2A (Homo sapiens), sequence (Q9UIF9 whole entry, the tested form may be a part): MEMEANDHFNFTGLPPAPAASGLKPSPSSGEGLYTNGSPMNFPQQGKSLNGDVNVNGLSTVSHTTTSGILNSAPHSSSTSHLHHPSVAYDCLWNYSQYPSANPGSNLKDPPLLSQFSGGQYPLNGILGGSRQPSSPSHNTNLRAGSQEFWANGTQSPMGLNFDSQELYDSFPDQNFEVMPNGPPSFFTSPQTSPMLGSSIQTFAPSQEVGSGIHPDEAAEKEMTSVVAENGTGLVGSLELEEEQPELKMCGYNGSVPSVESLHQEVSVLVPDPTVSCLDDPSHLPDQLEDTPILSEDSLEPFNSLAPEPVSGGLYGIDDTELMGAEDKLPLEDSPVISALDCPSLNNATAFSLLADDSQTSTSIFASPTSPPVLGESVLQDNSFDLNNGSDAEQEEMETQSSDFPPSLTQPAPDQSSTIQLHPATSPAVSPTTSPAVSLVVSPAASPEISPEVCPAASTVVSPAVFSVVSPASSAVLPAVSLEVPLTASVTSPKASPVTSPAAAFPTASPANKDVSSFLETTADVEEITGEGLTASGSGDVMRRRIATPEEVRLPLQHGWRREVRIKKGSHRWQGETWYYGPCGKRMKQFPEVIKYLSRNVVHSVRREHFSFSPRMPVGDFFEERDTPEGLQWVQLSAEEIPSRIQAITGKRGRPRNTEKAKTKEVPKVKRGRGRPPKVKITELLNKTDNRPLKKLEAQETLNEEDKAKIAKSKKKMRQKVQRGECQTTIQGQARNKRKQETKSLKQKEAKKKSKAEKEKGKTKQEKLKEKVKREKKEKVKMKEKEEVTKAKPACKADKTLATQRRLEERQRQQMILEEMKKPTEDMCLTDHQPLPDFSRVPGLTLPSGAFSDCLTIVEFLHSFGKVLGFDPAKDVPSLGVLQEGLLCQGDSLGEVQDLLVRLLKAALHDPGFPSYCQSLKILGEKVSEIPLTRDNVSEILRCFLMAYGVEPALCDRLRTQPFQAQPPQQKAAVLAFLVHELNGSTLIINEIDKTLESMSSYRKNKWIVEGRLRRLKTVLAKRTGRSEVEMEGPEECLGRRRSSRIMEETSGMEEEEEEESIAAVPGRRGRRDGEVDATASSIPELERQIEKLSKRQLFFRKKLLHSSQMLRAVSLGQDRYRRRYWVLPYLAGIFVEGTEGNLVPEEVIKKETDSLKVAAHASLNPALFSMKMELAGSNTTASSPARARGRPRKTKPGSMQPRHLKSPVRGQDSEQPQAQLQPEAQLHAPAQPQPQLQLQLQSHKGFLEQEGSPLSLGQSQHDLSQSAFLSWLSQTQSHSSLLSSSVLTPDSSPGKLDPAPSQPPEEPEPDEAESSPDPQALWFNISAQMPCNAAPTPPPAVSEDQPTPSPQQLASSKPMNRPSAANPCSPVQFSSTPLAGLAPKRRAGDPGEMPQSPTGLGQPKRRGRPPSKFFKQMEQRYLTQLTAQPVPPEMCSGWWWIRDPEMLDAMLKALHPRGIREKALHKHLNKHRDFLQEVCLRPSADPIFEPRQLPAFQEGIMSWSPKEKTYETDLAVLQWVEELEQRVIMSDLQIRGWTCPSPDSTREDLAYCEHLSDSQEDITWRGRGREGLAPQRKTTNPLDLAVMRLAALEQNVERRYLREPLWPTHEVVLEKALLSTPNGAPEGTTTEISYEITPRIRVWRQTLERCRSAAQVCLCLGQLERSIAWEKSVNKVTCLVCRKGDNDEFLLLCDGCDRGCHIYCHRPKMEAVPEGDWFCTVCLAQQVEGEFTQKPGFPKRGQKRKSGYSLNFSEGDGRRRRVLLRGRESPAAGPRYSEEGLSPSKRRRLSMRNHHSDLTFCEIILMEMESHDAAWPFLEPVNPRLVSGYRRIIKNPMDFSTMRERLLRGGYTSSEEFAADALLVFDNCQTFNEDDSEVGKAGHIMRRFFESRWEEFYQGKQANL

[5] = biological target: Histone acetyltransferase KAT2A (Homo sapiens) (UniProt Q92830); assay: Binding affinity to human GCN5L2 bromodomain assessed as residual activity at 300 nM by BROMOscan method relative to control
[6] = biological target: Bromodomain-containing protein 1 (Homo sapiens) (UniProt O95696); assay: Binding affinity to human BRD1 bromodomain assessed as residual activity at 300 nM by BROMOscan method relative to control
[7] = biological target: Bromodomain and PHD finger-containing protein 3 (Homo sapiens) (UniProt Q9ULD4); assay: Binding affinity to human […] bromodomain assessed as residual activity at 300 nM by BROMOscan method relative to control
[8] = biological target: Chromatin remodeling regulator CECR2 (Homo sapiens, UniProt Q9BXF3); assay: Binding affinity to human CECR2 bromodomain assessed as residual activity at 300 nM by BROMOscan method relative to control
[9] = biological target: Bromodomain-containing protein 4 (Homo sapiens, UniProt O60885); assay: Displacement of Halo-tagged Histone H3.3 from Nanoluc-BRD4 BD1/BD2 (44 to 460 residues) (unknown origin) transfected in human HCT116 cells incubated for 18 hrs by NanoBRET assay; format: cell-based, HCT-116
[10] = biological target: Bromodomain testis-specific protein (Homo sapiens, UniProt Q58F21); assay: Binding affinity to human BRDT bromodomain 1 assessed as residual activity at 300 nM by BROMOscan method relative to control
[11] = biological target: T1, Protein polybromo-1 (Homo sapiens, UniProt Q86U86); assay: Binding affinity to human PBRM1 bromodomain 5 assessed as residual activity at 300 nM by BROMOscan method relative to control
T1 sequence (Q86U86 whole entry): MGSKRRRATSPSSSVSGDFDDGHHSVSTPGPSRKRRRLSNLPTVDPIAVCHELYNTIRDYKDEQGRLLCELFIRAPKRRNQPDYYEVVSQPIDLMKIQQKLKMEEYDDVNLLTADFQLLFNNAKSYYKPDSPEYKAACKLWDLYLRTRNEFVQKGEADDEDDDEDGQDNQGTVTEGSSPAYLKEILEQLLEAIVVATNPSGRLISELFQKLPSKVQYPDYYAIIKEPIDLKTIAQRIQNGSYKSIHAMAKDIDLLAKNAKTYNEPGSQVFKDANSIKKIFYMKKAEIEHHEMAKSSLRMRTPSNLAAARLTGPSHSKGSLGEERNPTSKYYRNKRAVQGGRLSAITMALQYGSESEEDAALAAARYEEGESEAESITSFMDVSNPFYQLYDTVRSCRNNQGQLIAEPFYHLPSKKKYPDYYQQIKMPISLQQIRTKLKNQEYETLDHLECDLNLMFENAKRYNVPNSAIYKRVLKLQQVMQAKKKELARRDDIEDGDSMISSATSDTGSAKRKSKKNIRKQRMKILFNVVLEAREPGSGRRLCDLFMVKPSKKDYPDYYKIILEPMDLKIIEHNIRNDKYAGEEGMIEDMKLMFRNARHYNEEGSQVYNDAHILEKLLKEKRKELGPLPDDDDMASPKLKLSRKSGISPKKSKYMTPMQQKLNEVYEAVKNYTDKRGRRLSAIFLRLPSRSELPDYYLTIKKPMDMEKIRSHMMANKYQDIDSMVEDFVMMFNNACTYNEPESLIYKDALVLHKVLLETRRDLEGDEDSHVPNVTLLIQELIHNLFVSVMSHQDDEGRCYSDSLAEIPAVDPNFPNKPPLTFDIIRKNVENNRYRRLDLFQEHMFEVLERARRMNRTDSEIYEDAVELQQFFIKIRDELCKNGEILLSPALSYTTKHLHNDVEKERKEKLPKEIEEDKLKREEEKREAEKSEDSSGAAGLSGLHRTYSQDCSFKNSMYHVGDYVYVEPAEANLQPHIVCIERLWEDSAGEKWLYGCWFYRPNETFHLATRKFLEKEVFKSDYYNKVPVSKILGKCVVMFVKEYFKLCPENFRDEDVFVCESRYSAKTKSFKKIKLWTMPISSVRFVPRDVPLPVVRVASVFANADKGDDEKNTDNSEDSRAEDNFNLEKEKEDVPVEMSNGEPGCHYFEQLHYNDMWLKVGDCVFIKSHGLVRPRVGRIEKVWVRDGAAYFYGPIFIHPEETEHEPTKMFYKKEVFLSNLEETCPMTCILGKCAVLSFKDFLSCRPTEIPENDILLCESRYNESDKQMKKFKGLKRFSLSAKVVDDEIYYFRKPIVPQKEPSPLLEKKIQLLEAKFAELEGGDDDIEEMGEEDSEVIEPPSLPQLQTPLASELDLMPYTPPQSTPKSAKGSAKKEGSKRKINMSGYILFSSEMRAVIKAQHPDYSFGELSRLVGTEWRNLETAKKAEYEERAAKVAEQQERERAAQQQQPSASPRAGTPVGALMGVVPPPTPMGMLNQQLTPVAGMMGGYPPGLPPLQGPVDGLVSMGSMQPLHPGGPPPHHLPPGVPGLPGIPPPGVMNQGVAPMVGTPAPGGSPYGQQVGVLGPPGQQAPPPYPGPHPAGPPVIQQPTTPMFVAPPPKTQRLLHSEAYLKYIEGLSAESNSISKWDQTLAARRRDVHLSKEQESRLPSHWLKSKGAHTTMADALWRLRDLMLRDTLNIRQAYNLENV

[12] = biological target: SWI/SNF-related matrix-associated actin-dependent regulator of chromatin subfamily A member 2 (Homo sapiens, UniProt P51531); assay: Binding affinity to human SMARCA2 bromodomain assessed as dissociation constant by BROMOscan method
[13] = biological target: T2, ATPase family AAA domain-containing protein 2 (Homo sapiens, UniProt Q6PL18); assay: Displacement of Halo-tagged Histone H3.3 from Nanoluc-ATAD2 BD (962 to 1119 residues) (unknown origin) transfected in human HCT116 cells incubated for 18 hrs in presence of efflux inhibitor elacridar by NanoBRET assay; format: cell-based, HCT-116
T2 sequence (Q6PL18 whole entry): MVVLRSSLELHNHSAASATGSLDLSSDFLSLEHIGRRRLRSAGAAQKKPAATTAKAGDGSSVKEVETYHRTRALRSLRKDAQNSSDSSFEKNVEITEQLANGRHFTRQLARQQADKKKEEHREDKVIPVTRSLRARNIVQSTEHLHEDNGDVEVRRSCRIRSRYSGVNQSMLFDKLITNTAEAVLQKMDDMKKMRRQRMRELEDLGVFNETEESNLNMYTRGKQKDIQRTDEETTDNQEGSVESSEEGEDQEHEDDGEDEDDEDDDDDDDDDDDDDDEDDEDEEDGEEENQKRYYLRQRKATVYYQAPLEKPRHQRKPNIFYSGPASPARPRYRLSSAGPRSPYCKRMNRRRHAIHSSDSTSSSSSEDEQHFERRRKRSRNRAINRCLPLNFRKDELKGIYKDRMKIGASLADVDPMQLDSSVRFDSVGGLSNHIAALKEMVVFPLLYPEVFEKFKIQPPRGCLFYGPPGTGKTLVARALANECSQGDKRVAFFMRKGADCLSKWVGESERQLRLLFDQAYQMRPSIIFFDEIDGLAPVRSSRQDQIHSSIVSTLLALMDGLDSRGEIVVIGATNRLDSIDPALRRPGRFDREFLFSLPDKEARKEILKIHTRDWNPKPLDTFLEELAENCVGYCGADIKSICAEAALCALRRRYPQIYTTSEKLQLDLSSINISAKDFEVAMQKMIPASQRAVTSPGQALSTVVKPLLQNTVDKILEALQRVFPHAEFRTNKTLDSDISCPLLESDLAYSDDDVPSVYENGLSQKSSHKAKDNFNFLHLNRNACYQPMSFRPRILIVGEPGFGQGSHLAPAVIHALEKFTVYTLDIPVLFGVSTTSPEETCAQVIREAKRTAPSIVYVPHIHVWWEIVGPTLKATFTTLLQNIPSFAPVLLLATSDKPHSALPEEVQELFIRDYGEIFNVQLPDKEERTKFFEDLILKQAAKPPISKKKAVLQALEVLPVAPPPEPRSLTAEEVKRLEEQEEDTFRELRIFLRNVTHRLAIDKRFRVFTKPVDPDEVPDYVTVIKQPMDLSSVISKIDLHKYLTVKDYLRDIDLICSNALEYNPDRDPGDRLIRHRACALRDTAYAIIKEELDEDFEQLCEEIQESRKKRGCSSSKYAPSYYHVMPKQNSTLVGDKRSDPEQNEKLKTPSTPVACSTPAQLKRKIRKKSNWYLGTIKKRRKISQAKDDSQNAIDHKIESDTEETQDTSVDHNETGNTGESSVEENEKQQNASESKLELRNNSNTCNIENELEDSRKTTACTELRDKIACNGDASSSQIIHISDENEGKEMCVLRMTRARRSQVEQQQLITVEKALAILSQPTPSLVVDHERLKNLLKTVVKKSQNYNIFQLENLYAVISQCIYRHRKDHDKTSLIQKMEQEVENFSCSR

[14] = biological target: Bromodomain-containing protein 3 (Homo sapiens, UniProt Q15059); assay: Binding affinity to human BRD3 bromodomain 1 assessed as residual activity at 300 nM by BROMOscan method relative to control
[15] = tested on: SK-BR-3; assay: Antiproliferative activity against human SK-BR-3 cells expressing BRD1 assessed as inhibition of colony formation at 0.01 to 10 uM measured after 14 to 21 days by alamarBlue based colony formation assay; format: functional, cell-based; conditions: dose 0.01-10 µM, time 14-21 day
[16] = biological target: T1, Protein polybromo-1; assay: Binding affinity to human PBRM1 bromodomain 5 assessed as dissociation constant by BROMOscan method
[17] = biological target: Bromodomain-containing protein 7 (Homo sapiens) (UniProt Q9NPI1); assay: Binding affinity to human BRD7 bromodomain assessed as residual activity at 300 nM by BROMOscan method relative to control
[18] = Binding affinity to human ATAD2A assessed as dissociation constant by BROMOscan method
[19] = biological target: Bromodomain-containing protein 9 (Homo sapiens) (UniProt Q9H8M2); assay: Binding affinity to human BRD9 bromodomain assessed as residual activity at 300 nM by BROMOscan method relative to control
Bromodomain-containing protein 9 (Homo sapiens), sequence (Q9H8M2 whole entry): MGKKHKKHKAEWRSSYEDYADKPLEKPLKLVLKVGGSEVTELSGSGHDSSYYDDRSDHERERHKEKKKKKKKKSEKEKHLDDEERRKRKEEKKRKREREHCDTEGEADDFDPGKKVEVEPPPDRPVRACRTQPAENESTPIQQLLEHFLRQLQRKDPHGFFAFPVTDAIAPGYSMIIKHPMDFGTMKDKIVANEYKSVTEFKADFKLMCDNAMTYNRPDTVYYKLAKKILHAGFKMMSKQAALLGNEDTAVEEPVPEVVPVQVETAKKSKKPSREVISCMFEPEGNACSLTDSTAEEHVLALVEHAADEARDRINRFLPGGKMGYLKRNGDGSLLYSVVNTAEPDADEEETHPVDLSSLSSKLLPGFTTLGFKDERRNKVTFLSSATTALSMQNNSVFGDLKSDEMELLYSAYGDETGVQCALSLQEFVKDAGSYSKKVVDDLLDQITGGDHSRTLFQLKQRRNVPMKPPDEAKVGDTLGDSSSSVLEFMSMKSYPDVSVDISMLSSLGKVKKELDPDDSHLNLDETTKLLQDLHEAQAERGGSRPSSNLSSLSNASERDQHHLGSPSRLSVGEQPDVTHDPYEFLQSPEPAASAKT

Kd [1]: > 3160 nM | Kd [2]: 200 nM | Activity [3]: 79% | Activity [4]: 82% | Activity [5]: 73% | Activity [6]: 75% | Activity [7]: 66% | Activity [8]: 59% | IC50 [9]: 10000 nM | Activity [10]: 48% | Activity [11]: 52% | Kd [12]: > 3160 nM | IC50 [13]: 100 nM | Activity [14]: 90% | Kd [16]: > 316 nM | Activity [17]: 73% | pKd [18]: 8.9 | Activity [19]: 64%
Compound: Cc1nnc2c(NC3CCN(CC(C)(C)F)CC3)cc(C(=O)N3[C@@H]4c5ccccc5C[C@H]3C(=O)N[C@@H]4C(C)C)nn12
Activity [15]: inactive
